Laboratory results taken from publication PMC10762078, “Role of UPF1-LIN28A interaction during early differentiation of pluripotent stem cells” (Nature Communications, 2024).
Ends that are not written are not given here.

Test system: nonsense-mediated mRNA decay (NMD)
Test: NMD reporter (Gl, GPx1) mRNA by RT-qPCR in LIN28A-expressing HeLa cells with CPP-peptides (Fig. 5c)
Format: cell-based
Conditions: for relative GPx1 mRNA level / relative Gl mRNA level: normalised to MUP
Method: Fig. 5 CPP-conjugated peptide inhibits UPF1-LIN28A interaction. a Schematic representation of designated CPP-conjugated peptides. The amino acid sequences and positions of each peptide on UPF1 are indicated. CPP-P1 and -P2 served as negative controls. CPP-FITC was used to evaluate cell-penetrating ability in cells. b 293T cell lysates co-transfected with pCMV-MYC-UPF1 and pGEX-GST-LIN28A and incubated with the indicated CPP-conjugated peptides were employed for GST pull-down. c Relative levels of NMD reporters were measured in LIN28A-expressing HeLa cells incubated with the indicated CPP-conjugated peptides. mRNA level was normalised to that of MUP mRNA. d PLA was performed using LIN28A-overexpressing HeLa cells and hPSCs in the presence of indicated peptides. Red: fluorophore in amplified DNA circle, and Blue: DAPI stained nucleus. Scale bars, 50 μm. Unpaired Student’s t-test was used. Data are presented as mean values ± SEM. All statistical test used were two-sided. The minimum number of independent biological replicate experiments was b–d n = 3. The experiments were conducted three times, each iteration producing consistent results.
For CPP-conjugated peptide delivery, HeLa, 293T, and PA-1 cells were incubated with CPP-conjugated peptides or CPP-FITC at 2 μM in DMEM with 10% FBS for 12 h a day before cell harvest. hPSCs were treated with CPP-conjugated peptides at 10 μM in mTeSR Plus Medium, and the peptide-containing medium was changed every day over 10 days. The ROCK inhibitor (Tocris Bioscience, Y-27632) treated-hPSCs were dissociated into single cells using Accutase (Merck, SCR005) and differentiated into ectoderm, mesoderm, and endoderm using the STEMdiff Trilineage Differentiation Kit ([…] Technologies, 05230) following the manufacturer’s protocol. Differentiated cells treated with CPP-conjugated peptides were analysed at 0, 3, and 5 days for ectoderm and endoderm, and at 0, 3, and 4 days for mesoderm.
Total RNA purification and RT-qPCR
Total RNA was extracted using TRIzol reagent (Invitrogen) according to the manufacturer’s protocol. After extraction, RNA was incubated with RQ1 RNase-Free DNase (Promega) to remove the exogenous and endogenous DNA.
cDNA was synthesised using RevertAid Reverse Transcriptase (Thermo Fisher Scientific, EP0441) with synthesised random hexamer (Macrogen) for total RNA or stem-loop primers for miRNA. For RT-qPCR reactions, the SensiFAST SYBR No-ROX kit (Meridian Bioscience) was used according to the manufacturer’s protocol. All data analysis and visualisation were conducted using R 3.6.1 [www.r-project.org] or GraphPad Prism 10. RT primers for miRNA and RT-qPCR primer sequences are provided in Supplementary Data 6.
Fold change in NMD efficiency represents the ratio of test NMD (PTC-containing transcript) to control NMD (PTC-free transcript), where NMD is the relative abundance of PTC-containing mRNA divided by the relative abundance of PTC-free mRNA. The abundance of MUP mRNA was used as the reference.

[1] = LIN28A-expressing HeLa, CPP-peptide, replicate set1
[2] = LIN28A-expressing HeLa, CPP-peptide, replicate set2
[3] = LIN28A-expressing HeLa, CPP-peptide, replicate set3

Substance: KKKWCRKKKSSADEKRYRALKRTAERELLMNA [CPP-P8, CPP conjugated to P8]
- increased Gl Ter and GPx1 Ter levels caused by LIN28A (LIN28A-expressing HeLa, 2 μM, 12 h): efficiently reversed by CPP-P8

Substance: KKKWCRKKKSSADEKRYRALKRTAERELLMNA [P8]
- relative GPx1 mRNA level [1]: 1.006
- relative Gl mRNA level [1]: 1.305
- relative GPx1 mRNA level [2]: 1.229
- relative Gl mRNA level [2]: 0.7968
- relative GPx1 mRNA level [3]: 0.4585
- relative Gl mRNA level [3]: 1.128
- GPx1 mRNA, mean (LIN28A-expressing HeLa, CPP-peptide, mean in t-test output, n = 3): 0.2385
- GPx1 mRNA, difference between means (C - B) ± SEM (LIN+P8 minus LIN+P1): -0.4015 ± 0.06473
- Gl mRNA, difference between means (C - B) ± SEM (LIN+P8 minus LIN+P1): -1.443 ± 0.3024

Substance: N-QKLDQKELQLEPM-C [P1, reference compound]
- relative Gl mRNA level (FLAG control (no LIN28A) HeLa, CPP-peptide, replicate set2): 1.21
- relative GPx1 mRNA level (FLAG control (no LIN28A) HeLa, CPP-peptide, replicate set3): 1.026
- relative GPx1 mRNA level [1]: 2.435
- relative Gl mRNA level [1]: 3.179
- relative GPx1 mRNA level [2]: 2.54
- relative Gl mRNA level [2]: 5.571
- relative GPx1 mRNA level [3]: 2.254
- relative Gl mRNA level [3]: 4.729
